Where “and” joins values, the source holds several entries; their conditions need not be identical. Equal values may be shown once.
What was measured:
[1] = tested on: children undergoing tonsillectomy; assay: Respiratory depression and prolonged PACU stay due to RD by ABCB1 genotype (Example 7)
Text: Children 6-15 years undergoing elective outpatient tonsillectomy were eligible for the study and recruited on the day of surgery. […] Clinical criteria for OSA designation included sleep disordered breathing with a history of snoring and either sleep pauses lasting more than 10 seconds or daytime drowsiness. Children were excluded from the study if they or their parents were non-English speaking.
All participants received standard perioperative care. Anesthesia was induced using sevoflurane followed by a propofol (2 mg/kg) bolus to facilitate endotracheal intubation. Anesthesia was maintained with sevoflurane without the use of neuromuscular blockade. […] All children receive prophylactic ondansetron (0.1 mg/kg) and dexamethasone (0.1 mg/kg) intraoperatively.
Duration of PACU stay (time to achieve PACU discharge readiness) was defined as the duration in PACU before achieving the following discharge criteria. […] This is discharge readiness time is different from actual PACU discharge time as delays due to social reasons (e.g. waiting for car rides) were not included.
Metrics for analgesic effectiveness and opioid-related adverse effects were recorded for each participant. For the metrics for opioid-related adverse effects, this study focused on two clinically and economically important outcomes: clinical RD and prolonged PACU stay (>90 minutes) secondary to respiratory depression assessed consistently by the research coordinator.
Blood was collected from each participant in the operating room under anesthesia and the DNA was isolated the same day and stored at −20 degree Celsius. Batched genotyping was performed after clinical data was entered on all study participants. The TaqMan allelic discrimination system assays and Genotyper Softerware Version 1.0.1 (Life Technologies, Applied Biosystems, Forest City, Calif.) were used to analyse and report the following ABCB1 polymorphisms: rs1045642, rs2032582, rs1128503, rs2229109, and rs9282564.
Prior to analysis, data qualities were examined. For the ABCB1 variants, allelic and genotype frequencies were assessed in white and black patients separately, and Hardy Weinberg equilibrium (HWE) was tested. To analyze binary outcomes (RD, prolonged PACU secondary to RD and analgesic intervention need), logistic regression was performed. […] Thus, maximum FLACC scores were analyzed using a zero-inflated negative binomial model to appropriately capture the distribution of this variable. […] To select the best fitting model, log likelihood, Akaike and Bayesian Information criterion were compared, and residuals were examined. […] To assess the single SNP association with the outcomes, additive models were used, in which the genotypes were recoded and tested as continuous variables. For the four bi-allelic SNPs, genotypes were recoded to 0, 1 and 2 according to the number of minor alleles. For rs2032582, GG genotype was recoded as 0; GA and GT genotypes were combined and recoded as 1, and TT and TA genotypes as 2. Statistical modeling was conducted with white and black patients separately and combined. When races were combined, the effects of race and race*SNP interaction were tested.

[2] = tested on: children undergoing tonsillectomy; assay: Opioid-related adverse effects and PACU stay by sex, age and morphine dose (Example 6)
Text: This was a prospective clinical observational study using a standard perioperative anesthetic and surgical practices and standard postoperative nursing care within the tonsillectomy population.
Clinical criteria for OSA designation included sleep disordered breathing with a history of snoring and either sleep pauses lasting more than 10 seconds or daytime drowsiness. Children were excluded from the study if they or their parents were non-English speaking.
As part of T/TA standard practice at this institution, all children receive prophylactic ondansetron (0.1 mg/kg) and dexamethasone (0.1 mg/kg) intraoperatively. Anesthesia is induced via sevoflurane inhaled induction followed by a propofol (2 mg/kg) bolus to facilitate endotracheal intubation. Anesthesia was maintained with sevoflurane without the use of neuromuscular blockade.
Adverse effects were measured by two sets of binary outcomes: 1) opioid-related side effects including RD, nausea/vomiting (PONV) and pruritus; 2) prolonged PACU stay secondary to respiratory depression or nausea/vomiting.
Duration of PACU stay (time to achieve PACU discharge readiness) was defined as the duration in PACU before achieving the following discharge criteria. […] This discharge readiness time is different from actual PACU discharge time as delays due to social reasons (e.g. waiting for car ride, etc.) were not included.
Prior to analyses, data quality was examined. […] To assess the sex effect, outcome measurements were first compared between boys and girls with and without OSA stratification. Continuous variables were compared using t-test or Wilcoxon rank-sum test and categorical variables were compared using Fisher's exact test.
Effects of age, weight, BMI z scores, and OSA were also tested as covariates for all the outcomes. When significant effects were detected (p<0.05), covariates were included in the final models. Binary outcomes were analyzed using logistic regression. Maximum NRS was analyzed using linear regression. Maximum FLACC score was analyzed by using a zero-inflated negative binomial model because of the inflated frequency of score 0. The total number of analgesic interventions followed a Poisson distribution and was analyzed using a generalized linear model.

[3] = F, total morphine 0.2-<0.3 mg/kg
[4] = M, total morphine 0.2-<0.3 mg/kg
[5] = girls 8-13 years, total morphine <0.3 mg/kg
[6] = girls 8-13 years, total morphine >=0.3 mg/kg
[7] = girls <8 years, total morphine <0.3 mg/kg
[8] = girls <8 years, total morphine >=0.3 mg/kg
[9] = girls >13 years, total morphine <0.3 mg/kg
[10] = girls >13 years, total morphine >=0.3 mg/kg

CN1CC[C@]23c4c5ccc(O)c4O[C@H]2[C@@H](O)C=C[C@H]3[C@H]1C5 [morphine]
patients with RD ([1]; 263 patients): 19% | patients with prolonged PACU stay due to RD ([1]; 263 patients): 11% | Prolonged PACU due to RD % ([1]; Blacks, ABCB1 rs1045642 CC, N=27): 7% | Prolonged PACU due to RD % ([1]; Blacks, ABCB1 rs1045642 TC, N=14): 21% | Prolonged PACU due to RD % ([1]; Blacks, ABCB1 rs1045642 TT, N=3): 33% | Prolonged PACU due to RD % ([1]; Blacks, ABCB1 rs1128503 CC, N=24): 8% | Prolonged PACU due to RD % ([1]; Blacks, ABCB1 rs1128503 TC, N=18): 17% | Prolonged PACU due to RD % ([1]; Blacks, ABCB1 rs1128503 TT, N=2): 50% | Prolonged PACU due to RD % ([1]; Blacks, ABCB1 rs2032582 GA, N=1): 0% | Prolonged PACU due to RD % ([1]; Blacks, ABCB1 rs2032582 GG, N=35): 11% | Prolonged PACU due to RD % ([1]; Blacks, ABCB1 rs2032582 GT, N=8): 25% | Prolonged PACU due to RD % ([1]; Blacks, ABCB1 rs2229109 CA, N=1): 0% | Prolonged PACU due to RD % ([1]; Blacks, ABCB1 rs2229109 CC, N=43): 14% | Prolonged PACU due to RD % ([1]; Blacks, ABCB1 rs9282564 AA, N=41): 10% | Prolonged PACU due to RD % ([1]; Blacks, ABCB1 rs9282564 GA, N=3): 67% | Prolonged PACU due to RD % ([1]; Whites, ABCB1 rs1045642 CC, N=49): 4% | Prolonged PACU due to RD % ([1]; Whites, ABCB1 rs1045642 TC, N=100): 15% | Prolonged PACU due to RD % ([1]; Whites, ABCB1 rs1045642 TT, N=70): 10% | Prolonged PACU due to RD % ([1]; Whites, ABCB1 rs1128503 CC, N=70): 9% | Prolonged PACU due to RD % ([1]; Whites, ABCB1 rs1128503 TC, N=102): 13% | Prolonged PACU due to RD % ([1]; Whites, ABCB1 rs1128503 TT, N=47): 11% | Prolonged PACU due to RD % ([1]; Whites, ABCB1 rs2032582 GA, N=7): 0% | Prolonged PACU due to RD % ([1]; Whites, ABCB1 rs2032582 GG, N=65): 9% | Prolonged PACU due to RD % ([1]; Whites, ABCB1 rs2032582 GT, N=100): 14% | Prolonged PACU due to RD % ([1]; Whites, ABCB1 rs2032582 TA, N=1): 0% | Prolonged PACU due to RD % ([1]; Whites, ABCB1 rs2032582 TT, N=46): 9% | Prolonged PACU due to RD % ([1]; Whites, ABCB1 rs2229109 CA, N=14): 14% | Prolonged PACU due to RD % ([1]; Whites, ABCB1 rs2229109 CC, N=205): 11% | Prolonged PACU due to RD % ([1]; Whites, ABCB1 rs9282564 AA, N=171): 8% | Prolonged PACU due to RD % ([1]; Whites, ABCB1 rs9282564 GA, N=46): 20% | Prolonged PACU due to RD % ([1]; Whites, ABCB1 rs9282564 GG, N=2): 100% | PONV, number of cases ([2]; F, All): 22 | PONV, proportion ([2]; F, All): (10%) | Prolonged stay in PACU due to PONV, proportion ([2]; F, All): (5%) | Prolonged stay in PACU due to RD, number of cases ([2]; F, All): 11 | Prolonged stay in PACU due to RD, proportion ([2]; F, All): (5%) | Pruritus, number of cases ([2]; F, All): 88 | Pruritus, proportion ([2]; F, All): (41%) | RD, proportion ([2]; F, All): (9%) | PONV, number of cases ([2]; F, OSA No): 11 | PONV, proportion ([2]; F, OSA No): (9%) | Prolonged stay in PACU due to PONV, proportion ([2]; F, OSA No): (2%) | Prolonged stay in PACU due to RD, number of cases ([2]; F, OSA No): 5 | Prolonged stay in PACU due to RD, proportion ([2]; F, OSA No): (4%) | Pruritus, number of cases ([2]; F, OSA No): 41 | Pruritus, proportion ([2]; F, OSA No): (33%) | RD, number of cases ([2]; F, OSA No): 9 | RD, proportion ([2]; F, OSA No): (7%) | PONV, number of cases ([2]; F, OSA Yes): 11 | PONV, proportion ([2]; F, OSA Yes): (12%) | Prolonged stay in PACU due to PONV, proportion ([2]; F, OSA Yes): (8%) | Prolonged stay in PACU due to RD, number of cases ([2]; F, OSA Yes): 6 | Prolonged stay in PACU due to RD, proportion ([2]; F, OSA Yes): (6%) | Pruritus, number of cases ([2]; F, OSA Yes): 47 | Pruritus, proportion ([2]; F, OSA Yes): (50%) | RD, proportion ([2]; F, OSA Yes): (12%) | PONV, number of cases (%) [2, 3]: 8 (16) | Prolonged stay in PACU due to PONV, number of cases (%) [2, 3]: 3 (6) | Prolonged stay in PACU due to RD, number of cases (%) [2, 3]: 1 (2) | Pruritus, number of cases (%) [2, 3]: 42 (84) | PONV, number of cases (%) ([2]; F, total morphine <0.2 mg/kg): 4 (10) | Prolonged stay in PACU due to PONV, number of cases (%) ([2]; F, total morphine <0.2 mg/kg): 2 (5) | Prolonged stay in PACU due to RD, number of cases (%) ([2]; F, total morphine <0.2 mg/kg): 2 (5) | Pruritus, number of cases (%) ([2]; F, total morphine <0.2 mg/kg): 29 (73) | PONV, number of cases (%) ([2]; F, total morphine ≥0.3 mg/kg): 10 (43) | Prolonged stay in PACU due to PONV, number of cases (%) ([2]; F, total morphine ≥0.3 mg/kg): 5 (22) | Prolonged stay in PACU due to RD, number of cases (%) ([2]; F, total morphine ≥0.3 mg/kg): 8 (35) | Pruritus, number of cases (%) ([2]; F, total morphine ≥0.3 mg/kg): 17 (74) | RD, number of cases (%) ([2]; F, total morphine ≥0.3 mg/kg): 12 (52) | PONV, number of cases ([2]; M, All): 14 | PONV, proportion ([2]; M, All): (6%) | Prolonged stay in PACU due to PONV, proportion ([2]; M, All): (4%) | Prolonged stay in PACU due to RD, number of cases ([2]; M, All): 13 | Prolonged stay in PACU due to RD, proportion ([2]; M, All): (6%) | Pruritus, number of cases ([2]; M, All): 79 | Pruritus, proportion ([2]; M, All): (36%) | RD, proportion ([2]; M, All): (8%) | PONV, number of cases ([2]; M, OSA No): 7 | PONV, proportion ([2]; M, OSA No): (6%) | Prolonged stay in PACU due to PONV, proportion ([2]; M, OSA No): (5%) | Prolonged stay in PACU due to RD, number of cases ([2]; M, OSA No): 8 | Prolonged stay in PACU due to RD, proportion ([2]; M, OSA No): (6%) | Pruritus, number of cases ([2]; M, OSA No): 51 | Pruritus, proportion ([2]; M, OSA No): (41%) | RD, number of cases ([2]; M, OSA No): 12 | RD, proportion ([2]; M, OSA No): (10%) | PONV, number of cases ([2]; M, OSA Yes): 7 | PONV, proportion ([2]; M, OSA Yes): (7%) | Prolonged stay in PACU due to PONV, proportion ([2]; M, OSA Yes): (2%) | Prolonged stay in PACU due to RD, number of cases ([2]; M, OSA Yes): 5 | Prolonged stay in PACU due to RD, proportion ([2]; M, OSA Yes): (5%) | Pruritus, number of cases ([2]; M, OSA Yes): 28 | Pruritus, proportion ([2]; M, OSA Yes): (30%) | RD, number of cases ([2]; M, OSA Yes): 6 | RD, proportion ([2]; M, OSA Yes): (6%) | PONV, number of cases (%) [2, 4]: 7 (15) | Prolonged stay in PACU due to PONV, number of cases (%) [2, 4]: 3 (6) | Prolonged stay in PACU due to RD, number of cases (%) [2, 4]: 3 (6) | Pruritus, number of cases (%) [2, 4]: 35 (76) | RD, number of cases (%) [2, 4]: 6 (13) | PONV, number of cases (%) ([2]; M, total morphine <0.2 mg/kg): 6 (18) | Prolonged stay in PACU due to PONV, number of cases (%) ([2]; M, total morphine <0.2 mg/kg): 4 (12) | Prolonged stay in PACU due to RD, number of cases (%) ([2]; M, total morphine <0.2 mg/kg): 5 (15) | Pruritus, number of cases (%) ([2]; M, total morphine <0.2 mg/kg): 24 | RD, number of cases (%) ([2]; M, total morphine <0.2 mg/kg): 4 (12) | PONV, number of cases (%) ([2]; M, total morphine ≥0.3 mg/kg): 1 (4) | Prolonged stay in PACU due to PONV, number of cases (%) ([2]; M, total morphine ≥0.3 mg/kg): 1 (4) | Prolonged stay in PACU due to RD, number of cases (%) ([2]; M, total morphine ≥0.3 mg/kg): 5 (20) | Pruritus, number of cases (%) ([2]; M, total morphine ≥0.3 mg/kg): 20 (80) | RD, number of cases (%) ([2]; M, total morphine ≥0.3 mg/kg): 8 (32) | PONV, number of cases (%) [2, 5]: 2 (5) | Prolonged stay in PACU due to PONV, number of cases (%) [2, 5]: 2 (5) | Prolonged stay in PACU due to RD, number of cases (%) [2, 5]: 1 (2) | Respiratory depression (RD), number of cases (%) [2, 5]: 4 (9) | PONV, number of cases (%) [2, 6]: 1 (11) | Prolonged stay in PACU due to PONV, number of cases (%) [2, 6]: 1 (11) | Prolonged stay in PACU due to RD, number of cases (%) [2, 6]: 3 (33) | Respiratory depression (RD), number of cases (%) [2, 6]: 5 (56) | PONV, number of cases (%) [2, 7]: 7 (19) | Prolonged stay in PACU due to PONV, number of cases (%) [2, 7]: 2 (5) | Prolonged stay in PACU due to RD, number of cases (%) [2, 7]: 2 (5) | Respiratory depression (RD), number of cases (%) [2, 7]: 3 (8) | PONV, number of cases (%) [2, 8]: 6 (60) | Prolonged stay in PACU due to PONV, number of cases (%) [2, 8]: 4 (40) | Prolonged stay in PACU due to RD, number of cases (%) [2, 8]: 4 (40) | Respiratory depression (RD), number of cases (%) [2, 8]: 5 (50) | PONV, number of cases (%) [2, 9]: 1 (9) | Prolonged stay in PACU due to PONV, number of cases (%) [2, 9]: 1 (9) | Prolonged stay in PACU due to RD, number of cases (%) [2, 9]: 0 (0) | Respiratory depression (RD), number of cases (%) [2, 9]: 1 (9) | PONV, number of cases (%) [2, 10]: 0 (0) | Prolonged stay in PACU due to PONV, number of cases (%) [2, 10]: 0 (0) | Prolonged stay in PACU due to RD, number of cases (%) [2, 10]: 1 (25) | Respiratory depression (RD), number of cases (%) [2, 10]: 2 (50) | probability of all opioid adverse effects except for pruritus ([2]; girls, morphine exceeded 0.3 mg/kg, multivariate models): increased significantly | duration of stay in PACU ([2]; white boys, <0.3 mg/kg total morphine): 88.3 ± 3.6 min | duration of stay in PACU ([2]; white boys, ≥0.3 mg/kg total morphine): 99.7 ± 6.4 min | duration of stay in PACU ([2]; white girls, <0.3 mg/kg total morphine): 82.2 ± 3.3 min | duration of stay in PACU ([2]; white girls, ≥0.3 mg/kg total morphine, 0.3 mg/kg): 111 ± 6.6 min and 111.1 ± 6.6 min

From patent publication US10878939B2, “Methods and compositions for personalized pain management” (Children's Hospital Medical Center, priority 2014, dated 2020)
